According to patent US20250186365A1, “COMBINATION OF ANTISPASMODIC AND OSMOTIC AGENTS FOR TOPICAL PRODUCTS AND METHOD OF USE THEREOF” (priority 2023, published 2025):
“Also recorded” adds a separate entry of the source.

Assays:
hind limb muscle = test: Rat hind limb muscle twitch study; format: in vivo, Sprague-Dawley rats
Procedure: Adverting now to the drawings, FIG. 1 is a schematic diagram of a validated muscle twitch experimental set-up in the present disclosure. Here, anesthetized Sprague-Dawley rats were prepared for muscle contraction assessment of their hind limbs. The hind limbs were shaved and secured at the knee and ankle joints to prevent movement. The distal tendon of the targeted muscle was connected to a high-sensitivity force transducer to measure contractile force with precision. Electrical stimulation was delivered via electrodes positioned on the sciatic nerve to evoke muscle contractions. Vehicle (control study) or 5% w/w of HD was topically applied to the dermal area corresponding to the muscle group under study, ensuring proximity for local diffusion and effect. A study was performed to evaluate the effects of HD on muscle contractility using a validated in vivo rat model. The experimental setup was meticulously designed to measure the contractile force of the hind limb muscle in response to electrical stimulation of the sciatic nerve, providing a quantitative assessment of muscle relaxation and contraction dynamics in the presence of HD. Anesthetized Sprague-Dawley rats were used for this study, ensuring minimal variability in response to HD application. Hind limbs were shaved and then immobilized at the knee and ankle joints to isolate the effect to the targeted muscle group. […]

[1] = system: mouse extensor digitorum longus muscles; test: Isolated mouse muscle contraction study
Procedure: FIG. 4 is a schematic diagram of a validated isolated mouse muscle contraction study. The mouse muscles were isolated and placed in a physiological buffer within a tissue bath. Muscles were anchored at one end to the chamber floor and connected at the other end to a force transducer. After establishing a baseline response to the electrical field stimulation, HD was added to the buffer at concentrations ranging from 0.01% w/w to 1% w/w, and the impact on muscle contractile force was recorded over time at the fixed frequency of 150 Hz.
This subsequent study was aimed to elucidate the specific effects of HD on isolated muscle tissue from mice, to quantify its potential use as a muscle relaxant. The study's design allowed for the controlled assessment of muscle contractility in a physiological buffer, minimizing external variables present in in vivo models. Muscle Isolation: The mouse extensor digitorum longus muscles were carefully dissected and mounted in a tissue bath super fused with oxygenated physiological buffer, ensuring tissue viability throughout the experiment (FIG. 4). Baseline Measurement: Initial contractile responses were established via electrical field stimulation at various frequencies, setting a comparative baseline for subsequent HD application effects. HD Application: Differing concentrations of HD (ranging from 0.01% to 1%) were introduced to the buffer. The muscle's contractile force (amplitude, which is the maximum contractile force) was determined to assess HD's concentration-dependent effects (FIG. 6). Stimulation Frequency Adjustment: To explore the frequency-dependent nature of HD's action, muscles underwent varied frequencies of electrical stimulation. This protocol is aimed to simulate conditions of sporadic muscle spasms.

hairless mice = test: Rotarod performance study in hairless mice; format: in vivo; details: 5% HD topical; for time spent on Rota Rod: 20 rpm, vehicle 60 seconds
Procedure: Once the mice were trained, the rod was rotated at a constant speed of 20 rpm. Then the mice were placed on the rotating rod and length of time they could stay on the rotating rod was measured.
The Rotarod study was to investigate the skeletal muscle relaxant effects of HD, specifically its impact on motor coordination and balance in hairless mice. The study was structured to assess both the kinetics of HD's effect over time and its efficacy in inducing muscle relaxation. Efficacy of HD was determined post-treatment at intervals of 15, 30, 60, 75, 90 minutes. Control and Treatment Groups: Each stage included a control group receiving vehicle (Aloe Vera Gel) and a test group treated with HD, 5% w/w HD (0.5 g) in the vehicle (9.5 g Aloe Vera Gel). The topical treatment was applied to the thighs of all four limbs for each mouse.

SMILES: CCCCC(O)CO (centres unmarked) [HD, 1,2-hexanediol]
- duration of muscle contraction (hind limb muscle; 5% w/w HD topical vs vehicle, p<0.05): statistically significant reduction
- ability to maintain tetanic contraction during the stimulus period (hind limb muscle; 5% w/w HD topical, electrical stimulation at 150 Hz): failing to maintain tetanic tension; also recorded: unable to maintain tetanic contraction
- inhibitory effect on muscle contraction ([1]; 0.01% HD in buffer, 150 Hz): minimal effects; also recorded: No significant inhibitory effect
- reduction in contractile force ([1]; 0.1% HD in buffer, 150 Hz, vs vehicle controls): about 44%
- torque generation against stimulus frequency ([1]; 0.5% HD vs vehicle, n=5, p<0.01): frequency-dependent decrease in torque generation; also recorded: inhibition is more complete at higher frequencies of stimulation
- recovery from the muscle relaxant effect (hairless mice): complete recovery of all mice
- time spent on Rota Rod (hairless mice; 30 minutes post treatment): significant decrease
- time spent on Rota Rod (hairless mice; 60 minutes post treatment): significant decrease
